Measured values as given in patent US9439941B2, “Nano cancer barrier device (NCBD) to immobilize and inhibit the division of metastic cancer stem cells” (The University of Hong Kong, priority 2009, dated 2016).
Entries after “also recorded” stand apart in the source; their conditions may differ.

Experiments:
[1] = pH of untreated SAP solution; assay type: physicochemical; conditions: before neutralization in culture medium
Description: (§1) Untreated SAP solution has a very low pH (about 3-4). We neutralized the SAP solution in culture medium before implanting cells in the material. Briefly, for both 1% and 3%, SAP was placed in a dry dish and then 500 μl of culture medium added at the edge of the dish. This was to ensure that the culture medium would not wash the SAP away. The self-assembly occurred as soon as the material made contact with the medium. The medium was changed once at 30 minutes, and then removed. The 400 cells were placed either in the assembled SAP or a control well. Culture medium was then added at the edge of the dish in both SAP cases, and topped up every 2 days to compensate for evaporation. On day 14, the cells were vigorously washed out of the SAP using culture medium. In the 1% case, group 1 (n=4), the cells and SAP were moved to a new well and contents were washed multiple times to separate them from the SAP. In the 3% case, group 2 (n=4), the wells were also vigorously washed to remove the cells from the SAP. However, in both the 1% and 3% SAP concentration, not all of the cells were liberated. The culture continued to grow for 28 days at which point the wells were fixed with 4% paraformaldahyde.

[2] = tested on: prostate cancer cells (DU145); experiment: spheroid (prostasphere) / colony formation of prostate cancer stem cells embedded in SAP, non-adherent plate; assay type: cell-based; conditions: for state of CSCs: 14 days after plating; for prostasphere detection: 14 days after plating in non-adherent plate
Description: The SAP solution was prepared by using RADA16-I dry powder (made in the Ellis-Behnke lab) and mixed in an Eppendorf tube. The solution contained 10 or 30 mg of RADA16-I powder in 1 ml of Milli-Q water (Millipore Corp., Billerica Mass.), mixed, then sonicated for 30 seconds and filtered; this produced 1% and 3% SAP, respectively.
Pre-mix medium for spheroid assay. Mix 50 ml SFM (DMEM-F12-high glucose with 0.25% methylcellulose) and add 1 ml b27 per 50 ml SFM (50× stock). The growth factors are: fibroblast growth factor-basic (FGF) (Sigma cat. no. F0291)—25 μg dissolved in 1.0 ml of 5 mM Tris (pH 7.6) and sterilized with a 0.22 μm pore size filter (make 20 μl aliquots (stored at −20° C.) and add 10 μl per 50 ml of SFM); Epidermal growth factor (EGF) (Sigma cat. no. E4127)—0.1 mg dissolved in 1.0 ml of phosphate-buffered saline containing 0.1% bovine serum albumin (Sigma cat. no. A7511) (make […] (stored at −20° C.) and add 10 μl per 50 ml of SFM); Insulin 10 mg/ml—add 20 μl per 50 ml.
To remove prostate cancer cells (DU145, ATCC, Rockville, Md.) from adherent culture, trypsin was used to liberate and then re-suspend 400 cells per 1 μl plated in each well (10). Before plating the cells, the plate was coated with polyhema (Sigma, St. Louis, Mo.).
as §1

[3] = tested on: hormone refractory prostate cancer (HRPC); conditions: HRPC patients, Docetaxel-based chemotherapy; cited from earlier work

Compound: n-RADARADARADARADA-c [SAP]
- pH of untreated SAP solution [1]: 3-4
- state of CSCs ([2]; 1% SAP): most of the CSCs remained single cells
- prostasphere detection ([2]; 1% SAP): no prostaspheres could be detected
- time remaining cells continued to be quiescent (no division, no colony formation) ([2]; 1% SAP, cells not liberated by day-14 washout): up to 28 days
- state of cells at day 10 (FIG. 1G) ([2]; 1% SAP, day 10): still single cells
- cell division and colony formation while cells are in the material ([2]; 1% SAP, group 1 (n=4)): remained quiescent; also recorded: delayed division and formation of colonies
- colonies when cells completely surrounded by the material ([2]; 1% and 3% SAP): no colonies were seen
- colonies when part of the cell was exposed ([2]; 1% and 3% SAP, some cases): a colony of reduced size was seen
- time proliferation of cells was suspended ([2]; 1% and 3% SAP, experiment then stopped): 28 days
- state of CSCs ([2]; 3% SAP): most of the CSCs remained single cells
- prostasphere detection ([2]; 3% SAP): no prostaspheres could be detected
- cell division or colony formation of cells that remained in the material ([2]; 3% SAP, at 28 days): no cell division or colony formation
- state of cells at day 10 (FIG. 1H) ([2]; 3% SAP, day 10): still single cells
- size of single cell remaining in SAP (FIG. 1O) ([2]; 3% SAP, day 28): still the same size as day 1
- time CSCs remained quiescent ([2]; CSCs from prostate cancer cell lines embedded in SAP): more than 28 days
- self-renewal of prostate CSC ([2]; SAP, viability and CSC property preserved): completely inhibit
- time until colonization visible post-washout ([2]; cells washed out of 1% SAP): 10 days
- viability and self-renewal of embedded cells after washout ([2]; cells washed out of 1% SAP and replated): viable and capable of self-renewal
- time until prostaspheres visible after washout ([2]; cells washed out of 1% SAP at day 14, replated in non-adherent plate): 8 days
- time until prostaspheres evident post-washout ([2]; cells washed out of 3% SAP at day 14): 8 days
- division of cancer cells in vitro and subsequent colony formation ([2]; each group, cells placed in the SAP): stopped

Compound: CC(=O)O[C@@]12CO[C@@H]1C[C@H](O)[C@@]1(C)C(=O)[C@H](O)C3=C(C)[C@@H](OC(=O)[C@H](O)[C@@H](NC(=O)OC(C)(C)C)c4ccccc4)C[C@@](O)([C@@H](OC(=O)c4ccccc4)[C@H]21)C3(C)C [Docetaxel]
- improvement of median survival time [3]: 3 months
